Test results taken from publication PMC3698094, “Similarly Potent Inhibition of Adenylyl Cyclase by P-Site Inhibitors in Hearts from Wild Type and AC5 Knockout Mice” (PLoS ONE, 2013).

Legend:
Assay in all cases: radiochemical AC activity assay, […]cAMP from [α-32P]ATP, Sf9 membranes
Type in all cases: biochemical
[1] = target: T1, AC1 (recombinant) (Bos taurus, UniProt P19754); conditions: read-out: RecombinantACs / AC1
T1 construct: gene ADCY1; recombinant membranous AC1 expressed by baculovirus in Sf9 cells; crude Sf9 membranes
T1 sequence (P19754 whole entry): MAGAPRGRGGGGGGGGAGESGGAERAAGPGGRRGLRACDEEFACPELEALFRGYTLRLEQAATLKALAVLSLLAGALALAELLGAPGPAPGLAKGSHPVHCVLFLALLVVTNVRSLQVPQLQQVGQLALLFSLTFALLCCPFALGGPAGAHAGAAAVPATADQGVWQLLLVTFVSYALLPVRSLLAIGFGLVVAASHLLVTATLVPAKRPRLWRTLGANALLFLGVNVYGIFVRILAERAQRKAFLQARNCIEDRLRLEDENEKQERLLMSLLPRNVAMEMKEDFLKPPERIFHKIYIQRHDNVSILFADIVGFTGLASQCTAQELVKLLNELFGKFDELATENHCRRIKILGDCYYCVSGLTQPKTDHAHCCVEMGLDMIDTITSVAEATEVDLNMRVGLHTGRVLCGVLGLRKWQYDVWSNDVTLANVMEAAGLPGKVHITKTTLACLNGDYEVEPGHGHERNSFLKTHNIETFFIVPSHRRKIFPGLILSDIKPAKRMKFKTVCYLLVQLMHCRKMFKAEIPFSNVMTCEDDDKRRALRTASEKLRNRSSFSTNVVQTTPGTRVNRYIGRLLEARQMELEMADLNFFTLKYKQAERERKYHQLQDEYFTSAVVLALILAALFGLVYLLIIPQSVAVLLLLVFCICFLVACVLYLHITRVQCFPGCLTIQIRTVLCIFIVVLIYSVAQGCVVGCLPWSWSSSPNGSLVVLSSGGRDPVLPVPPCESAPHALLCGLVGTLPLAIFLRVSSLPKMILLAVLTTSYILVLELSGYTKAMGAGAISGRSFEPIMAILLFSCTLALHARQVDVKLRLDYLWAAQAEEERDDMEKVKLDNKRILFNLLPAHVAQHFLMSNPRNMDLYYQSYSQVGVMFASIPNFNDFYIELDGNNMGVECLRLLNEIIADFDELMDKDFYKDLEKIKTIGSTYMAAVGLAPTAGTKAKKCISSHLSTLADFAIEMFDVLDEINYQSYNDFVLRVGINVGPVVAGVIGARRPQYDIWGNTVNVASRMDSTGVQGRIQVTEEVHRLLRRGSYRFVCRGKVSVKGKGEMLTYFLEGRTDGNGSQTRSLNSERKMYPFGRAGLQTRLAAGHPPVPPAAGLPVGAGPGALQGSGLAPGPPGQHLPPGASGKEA

[2] = target: T2, AC2 (recombinant) (Rattus norvegicus, UniProt P26769); conditions: read-out: RecombinantACs / AC2
T2 construct: gene Adcy2; recombinant membranous AC2 expressed by baculovirus in Sf9 cells; crude Sf9 membranes
T2 sequence (P26769 whole entry): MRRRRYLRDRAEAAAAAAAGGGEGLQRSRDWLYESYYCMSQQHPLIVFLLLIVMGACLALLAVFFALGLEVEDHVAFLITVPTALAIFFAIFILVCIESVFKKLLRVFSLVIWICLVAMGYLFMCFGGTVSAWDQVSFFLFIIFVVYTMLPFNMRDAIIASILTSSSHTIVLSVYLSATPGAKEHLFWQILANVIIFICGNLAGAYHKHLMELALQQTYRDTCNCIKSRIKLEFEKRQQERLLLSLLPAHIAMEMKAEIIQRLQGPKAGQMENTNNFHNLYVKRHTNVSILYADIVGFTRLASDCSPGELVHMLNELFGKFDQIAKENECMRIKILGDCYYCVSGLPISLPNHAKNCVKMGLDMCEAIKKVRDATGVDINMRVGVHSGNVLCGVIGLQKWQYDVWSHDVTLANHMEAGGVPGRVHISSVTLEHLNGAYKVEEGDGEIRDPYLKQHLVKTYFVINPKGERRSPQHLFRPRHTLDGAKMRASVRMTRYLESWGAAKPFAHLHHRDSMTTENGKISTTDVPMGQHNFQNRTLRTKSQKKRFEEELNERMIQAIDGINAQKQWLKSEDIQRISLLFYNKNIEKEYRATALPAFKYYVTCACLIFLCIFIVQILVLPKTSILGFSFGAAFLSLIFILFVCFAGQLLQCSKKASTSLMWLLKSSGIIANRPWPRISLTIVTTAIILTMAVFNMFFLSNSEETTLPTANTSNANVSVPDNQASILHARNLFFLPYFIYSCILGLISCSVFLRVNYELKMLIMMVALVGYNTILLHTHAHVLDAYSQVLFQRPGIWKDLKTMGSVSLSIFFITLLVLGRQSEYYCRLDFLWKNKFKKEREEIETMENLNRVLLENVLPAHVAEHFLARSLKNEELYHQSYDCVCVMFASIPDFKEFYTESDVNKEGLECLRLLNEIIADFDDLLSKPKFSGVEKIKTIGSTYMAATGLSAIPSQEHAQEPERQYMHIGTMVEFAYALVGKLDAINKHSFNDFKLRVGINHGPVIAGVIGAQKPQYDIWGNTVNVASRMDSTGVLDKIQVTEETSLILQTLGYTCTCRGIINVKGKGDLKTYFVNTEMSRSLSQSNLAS

[3] = target: T3, AC5 (recombinant) (Canis lupus, UniProt P30803); conditions: read-out: RecombinantACs / AC5
T3 construct: gene ADCY5; recombinant membranous AC5 expressed by baculovirus in Sf9 cells; crude Sf9 membranes
T3 sequence (P30803 whole entry): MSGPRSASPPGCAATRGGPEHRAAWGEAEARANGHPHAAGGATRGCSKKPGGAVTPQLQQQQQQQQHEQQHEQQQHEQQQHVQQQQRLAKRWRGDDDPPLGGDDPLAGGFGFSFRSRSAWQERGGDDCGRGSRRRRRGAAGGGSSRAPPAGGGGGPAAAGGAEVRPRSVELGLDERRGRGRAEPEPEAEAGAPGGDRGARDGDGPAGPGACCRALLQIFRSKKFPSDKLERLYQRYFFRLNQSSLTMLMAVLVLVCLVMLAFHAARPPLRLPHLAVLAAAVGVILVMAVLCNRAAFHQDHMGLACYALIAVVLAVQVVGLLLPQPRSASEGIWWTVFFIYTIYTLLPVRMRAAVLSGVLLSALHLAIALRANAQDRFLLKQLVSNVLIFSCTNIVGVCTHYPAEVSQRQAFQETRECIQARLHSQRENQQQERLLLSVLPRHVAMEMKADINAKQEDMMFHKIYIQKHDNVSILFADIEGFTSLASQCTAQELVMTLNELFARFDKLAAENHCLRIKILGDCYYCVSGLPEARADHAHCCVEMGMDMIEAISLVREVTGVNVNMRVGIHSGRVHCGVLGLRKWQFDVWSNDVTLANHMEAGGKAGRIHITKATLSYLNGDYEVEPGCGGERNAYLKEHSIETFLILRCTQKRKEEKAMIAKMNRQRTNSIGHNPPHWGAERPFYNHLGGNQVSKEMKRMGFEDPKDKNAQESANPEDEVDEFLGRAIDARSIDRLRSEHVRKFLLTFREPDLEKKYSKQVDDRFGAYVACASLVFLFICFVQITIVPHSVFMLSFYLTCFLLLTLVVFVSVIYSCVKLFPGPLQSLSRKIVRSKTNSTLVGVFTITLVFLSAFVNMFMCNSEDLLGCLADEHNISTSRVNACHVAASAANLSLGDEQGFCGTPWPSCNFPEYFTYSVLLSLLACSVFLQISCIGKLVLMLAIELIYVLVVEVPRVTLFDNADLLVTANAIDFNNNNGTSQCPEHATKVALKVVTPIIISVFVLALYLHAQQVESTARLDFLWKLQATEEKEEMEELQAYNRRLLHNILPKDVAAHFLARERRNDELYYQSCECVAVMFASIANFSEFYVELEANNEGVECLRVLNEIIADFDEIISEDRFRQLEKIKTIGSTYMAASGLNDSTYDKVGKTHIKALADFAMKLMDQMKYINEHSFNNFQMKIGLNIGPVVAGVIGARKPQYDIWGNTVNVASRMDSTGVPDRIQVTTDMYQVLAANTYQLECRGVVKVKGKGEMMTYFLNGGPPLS

[4] = target: T2, AC2 (recombinant); conditions: read-out: Recombinant ACs / AC2
[5] = target: T3, AC5 (recombinant); conditions: read-out: Recombinant ACs / AC5
[6] = target: T1, AC1 (recombinant); conditions: read-out: Recombinant ACs / AC1

Row | EC50 [1] | EC50 [2] | EC50 [3] | IC50 [4] | IC50 [5] | IC50 [6] | SMILES
1 | 2.3 µM | 13.4 µM | 5.8 µM | – | – | – | C=C[C@@]1(C)CC(=O)[C@]2(O)[C@@]3(C)[C@@H](O)CCC(C)(C)[C@@H]3[C@H](O)[C@H](OC(C)=O)[C@@]2(C)O1 [Forskolin]
2 | – | – | – | 1110 µM | 81.1 µM | 330 µM | Nc1ncc2c(n1)CC(c1ccco1)CC2=O (stereo not drawn) [NKY80, 2-amino-7-(2-furanyl)-7,8-dihydro-5(6H)-quinazolinone]
3 | – | – | – | 381 µM | 9.5 µM | 110 µM | Nc1ncnc2c1ncn2C1CCCO1 (stereo not drawn) [SQ22,536, 9-(tetra-hydro-2-furanyl)-9H-purin-6-amine]
4 | – | – | – | 545 µM | 20 µM | 138 µM | Nc1ncnc2c1ncn2[C@@H]1O[C@H](CO)[C@@H](O)[C@@H]1O [vidarabine, 9-β-D-arabinosyladenine]
